Experimental data from patent US10160747B2, “Compounds and methods for kinase modulation, and indications therefor” (Plexxikon Inc., priority 2016, dated 2018).

What was measured:
[1] = system: MOLM-14 D835Y (endogenous FLT3 ITD and transfected FLT3 D835Y); experiment: MOLM-14 D835Y cell proliferation assay (CellTiter-Glo); type: cell-based; details: Homo sapiens, MOLM-14, 72 h; 3 d growth, GMean
Summary of the method: (§1)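 Three-day proliferation at 37 °C/5% CO2 of FLT3-ITD MOLM-14 lines with D835Y or F691L mutation, seeded 1×10^4 per well. Compounds at eight points, top 1 μM final, 0.2% DMSO. ATP luminescence (CellTiter-Glo) gives IC50.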

[2] = system: MOLM-14 F691L (endogenous FLT3 ITD and transfected FLT3 F691L); experiment: MOLM-14 F691L cell proliferation assay (CellTiter-Glo); type: cell-based; details: Homo sapiens, MOLM-14, 72 h; 3 d growth, GMean
Summary of the method: as §1

c-KIT = biological target: T1, c-KIT (Homo sapiens, UniProt P10721); experiment: c-KIT recombinant enzyme kinase assay (AlphaScreen); type: biochemical; details: 100 ATP, 8 pt
T1 construct: purchased Millipore 14-559K
Summary of the method: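 AlphaScreen proximity signal at 580 nm, from PY20 acceptor and streptavidin donor beads, measures tyrosine phosphorylation of 30 nM biotin-poly(Glu4-Tyr) peptide by recombinant kinase. ATP: 10 μM (FLT3 mutants), 100 μM (c-KIT). IC50 from loss of signal.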

Measured: IC50

T1 sequence (P10721 26-976): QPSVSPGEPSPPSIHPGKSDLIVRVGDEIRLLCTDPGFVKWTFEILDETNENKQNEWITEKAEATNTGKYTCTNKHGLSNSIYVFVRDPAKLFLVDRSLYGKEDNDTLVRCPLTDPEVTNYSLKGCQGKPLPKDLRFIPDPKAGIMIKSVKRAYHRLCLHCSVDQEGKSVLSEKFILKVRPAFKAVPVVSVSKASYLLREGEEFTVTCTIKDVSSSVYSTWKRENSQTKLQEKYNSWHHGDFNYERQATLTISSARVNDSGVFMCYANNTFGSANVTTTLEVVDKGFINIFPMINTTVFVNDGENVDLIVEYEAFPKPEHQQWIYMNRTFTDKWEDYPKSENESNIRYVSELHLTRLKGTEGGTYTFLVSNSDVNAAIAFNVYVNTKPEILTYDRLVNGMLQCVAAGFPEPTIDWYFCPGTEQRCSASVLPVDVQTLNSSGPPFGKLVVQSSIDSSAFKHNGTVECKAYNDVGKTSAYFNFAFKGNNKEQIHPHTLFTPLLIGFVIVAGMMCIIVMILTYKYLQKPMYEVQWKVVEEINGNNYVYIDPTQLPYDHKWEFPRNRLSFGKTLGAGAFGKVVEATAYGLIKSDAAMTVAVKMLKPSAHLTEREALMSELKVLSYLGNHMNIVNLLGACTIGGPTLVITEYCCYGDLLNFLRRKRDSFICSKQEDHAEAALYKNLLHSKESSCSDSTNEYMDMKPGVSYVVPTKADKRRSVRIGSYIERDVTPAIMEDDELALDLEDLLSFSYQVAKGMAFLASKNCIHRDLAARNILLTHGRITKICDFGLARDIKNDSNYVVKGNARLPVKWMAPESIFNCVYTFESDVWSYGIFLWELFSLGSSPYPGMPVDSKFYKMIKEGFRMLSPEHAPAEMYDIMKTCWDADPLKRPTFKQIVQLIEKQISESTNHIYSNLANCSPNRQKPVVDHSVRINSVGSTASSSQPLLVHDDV

CC(=O)c1c[nH]c2ncc(-c3ccc(CC(=O)Nc4cncc(C(F)(F)F)c4)c(F)c3)cc12 [Compound P-0055, 2-[4-(3-acetyl-1H-pyrrolo[2,3-b]pyridin-5-yl)-2-fluoro-phenyl]-N-[5-(trifluoromethyl)-3-pyridyl]acetamide]
0.0001 to 10 µM: all assays above

CCC(=O)c1c[nH]c2ncc(-c3ccc(CC(=O)Nc4cnc(C)c(C(F)(F)F)c4)c(F)c3)cc12 [Compound P-0070, 2-[2-fluoro-4-(3-propanoyl-1H-pyrrolo[2,3-b]pyridin-5-yl)phenyl]-N-[6-methyl-5-(trifluoromethyl)-3-pyridyl]acetamide]
0.0001 to 10 µM: all assays above

O=C(Cc1ccc(-c2cnc3[nH]nc(C4CC4)c3c2)cc1F)Nc1cncc(C(F)(F)F)c1 [Compound P-0072, 2-[4-(3-cyclopropyl-1H-pyrazolo[3,4-b]pyridin-5-yl)-2-fluoro-phenyl]-N-[5-(trifluoromethyl)-3-pyridyl]acetamide]
0.0001 to 10 µM: all assays above

O=C(Cc1ccc(-c2cnc3[nH]nc(C4CC4)c3c2)cc1)Nc1cncc(C(F)(F)F)c1 [Compound P-0073, 2-[4-(3-cyclopropyl-1H-pyrazolo[3,4-b]pyridin-5-yl)phenyl]-N-[5-(trifluoromethyl)-3-pyridyl]acetamide]
0.0001 to 10 µM: all assays above

Cn1cc(Nc2ncc(-c3ccc(CC(=O)Nc4cncc(C5CC5)c4)c(F)c3)cn2)cn1 [Compound P-0081, N-(5-cyclopropyl-3-pyridyl)-2-[2-fluoro-4-[2-[(1-methylpyrazol-4-yl)amino]pyrimidin-5-yl]phenyl]acetamide]
0.0001 to 10 µM: all assays above

O=C(Cc1ccc(-c2cnc(Nc3cnn4ccccc34)nc2)cc1F)Nc1cncc(C(F)(F)F)c1 [Compound P-0058, 2-[2-fluoro-4-[2-(pyrazolo[1,5-a]pyridin-3-ylamino)pyrimidin-5-yl]phenyl]-N-[5-(trifluoromethyl)-3-pyridyl]acetamide]
0.0001 to 10 µM: all assays above

Cc1ncc(NC(=O)Cc2ccc(-c3cnc4[nH]cc(Cl)c4n3)cc2F)cc1C(F)(F)F [Compound P-0059, 2-[4-(7-chloro-5H-pyrrolo[2,3-b]pyrazin-2-yl)-2-fluoro-phenyl]-N-[6-methyl-5-(trifluoromethyl)-3-pyridyl]acetamide]
0.0001 to 10 µM: all assays above

Cc1ncc(NC(=O)Cc2ccc(-c3cnc4[nH]cc(Cl)c4n3)cc2)cc1C(F)(F)F [Compound P-0079, 2-(4-(7-chloro-5H-pyrrolo[2,3-b]pyrazin-2-yl)phenyl)-N-(6-methyl-5-(trifluoromethyl)pyridin-3-yl)acetamide]
0.0001 to 10 µM: all assays above

Cn1cc(Nc2ncc(-c3ccc(CC(=O)Nc4cncc(C(C)(F)F)c4)c(F)c3)cn2)cn1 [Compound P-0090, N-[5-(1,1-difluoroethyl)-3-pyridyl]-2-[2-fluoro-4-[2-[(1-methylpyrazol-4-yl)amino]pyrimidin-5-yl]phenyl]acetamide]
0.0001 to 10 µM: all assays above

COc1ncc(NC(=O)Cc2ccc(-c3cnc4[nH]cc(F)c4c3)cc2F)cc1C(F)(F)F [Compound P-0034, 2-[2-fluoro-4-(3-fluoro-1H-pyrrolo[2,3-b]pyridin-5-yl)phenyl]-N-[6-methoxy-5-(trifluoromethyl)-3-pyridyl]acetamide]
0.0001 to 10 µM: all assays above

CCC(=O)c1c[nH]c2ncc(-c3ccc(CC(=O)Nc4cncc(C(F)(F)F)c4)c(F)c3)cc12 [Compound P-0068, 2-[2-fluoro-4-(3-propanoyl-1H-pyrrolo[2,3-b]pyridin-5-yl)phenyl]-N-[5-(trifluoromethyl)-3-pyridyl]acetamide]
0.0001 to 10 µM: all assays above

COc1ncc(NC(=O)Cc2ccc(-c3cnc(Nc4cnn(C)c4)nc3)cc2F)cc1C(F)(F)F [Compound P-0089, 2-[2-fluoro-4-[2-[(1-methylpyrazol-4-yl)amino]pyrimidin-5-yl]phenyl]-N-[6-methoxy-5-(trifluoromethyl)-3-pyridyl]acetamide]
0.0001 to 10 µM: all assays above

Cc1ncc(NC(=O)Cc2ccc(-c3cnc(Nc4cn[nH]c4)nc3)cc2F)cc1C(F)(F)F [Compound P-0027, 2-[2-fluoro-4-[2-(1H-pyrazol-4-ylamino)pyrimidin-5-yl]phenyl]-N-[6-methyl-5-(trifluoromethyl)-3-pyridyl]acetamide]
0.0001 to 10 µM: all assays above

Cc1ncc(NC(=O)Cc2ccc(-c3cnc4c(c3)C3(CC3)C(=O)N4)cc2F)cc1C(F)(F)F [Compound P-0057, 2-[2-fluoro-4-(2-oxospiro[1H-pyrrolo[2,3-b]pyridine-3,1′-cyclopropane]-5-yl)phenyl]-N-[6-methyl-5-(trifluoromethyl)-3-pyridyl]acetamide]
0.0001 to 10 µM: all assays above

Cc1ncc(NC(=O)Cc2ccc(-c3cnc(Nc4cnn(C)c4C)nc3)cc2F)cc1C(F)(F)F [Compound P-0076, 2-[4-[2-[(1,5-dimethylpyrazol-4-yl)amino]pyrimidin-5-yl]-2-fluoro-phenyl]-N-[6-methyl-5-(trifluoromethyl)-3-pyridyl]acetamide]
0.0001 to 10 µM: all assays above

COc1ncc(NC(=O)Cc2ccc(-c3cnc(Nc4cn[nH]c4)nc3)cc2F)cc1C(F)(F)F [Compound P-0026, 2-[2-fluoro-4-[2-(1H-pyrazol-4-ylamino)pyrimidin-5-yl]phenyl]-N-[6-methoxy-5-(trifluoromethyl)-3-pyridyl]acetamide]
0.0001 to 10 µM: all assays above

COc1ncc(NC(=O)Cc2ccc(-c3cnc(Nc4cnn5ccccc45)nc3)cc2F)cc1C(F)(F)F [Compound P-0037, 2-[2-fluoro-4-[2-(pyrazolo[1,5-a]pyridin-3-ylamino)pyrimidin-5-yl]phenyl]-N-[6-methoxy-5-(trifluoromethyl)-3-pyridyl]acetamide]
0.0001 to 10 µM: all assays above

O=C(Cc1ccc(-c2cnc3[nH]cc(Cl)c3n2)cc1F)Nc1cncc(C(F)(F)F)c1 [Compound P-0061, 2-[4-(7-chloro-5H-pyrrolo[2,3-b]pyrazin-2-yl)-2-fluoro-phenyl]-N-[5-(trifluoromethyl)-3-pyridyl]acetamide]
0.0001 to 10 µM: all assays above

O=C(Cc1ccc(-c2cnc3[nH]cc(F)c3c2)cc1F)Nc1cncc(C(F)(F)F)c1 [Compound P-0053, 2-[2-fluoro-4-(3-fluoro-1H-pyrrolo[2,3-b]pyridin-5-yl)phenyl]-N-[5-(trifluoromethyl)-3-pyridyl]acetamide]
0.0001 to 10 µM: all assays above

Cn1cnc(Nc2ncc(-c3ccc(CC(=O)Nc4cncc(C(F)(F)F)c4)c(F)c3)cn2)c1 [Compound P-0052, 2-[2-fluoro-4-[2-[(1-methylimidazol-4-yl)amino]pyrimidin-5-yl]phenyl]-N-[5-(trifluoromethyl)-3-pyridyl]acetamide]
0.0001 to 10 µM: all assays above

Cc1ncc(NC(=O)Cc2ccc(-c3cnc4[nH]cc(F)c4c3)cc2F)cc1C(F)(F)F [Compound P-0062, 2-[2-fluoro-4-(3-fluoro-1H-pyrrolo[2,3-b]pyridin-5-yl)phenyl]-N-[6-methyl-5-(trifluoromethyl)-3-pyridyl]acetamide]
0.0001 to 10 µM: all assays above

COc1ncc(NC(=O)Cc2ccc(-c3cnc4[nH]cc(Cl)c4n3)cc2F)cc1C(F)(F)F [Compound P-0047, 2-[4-(7-chloro-5H-pyrrolo[2,3-b]pyrazin-2-yl)-2-fluoro-phenyl]-N-[6-methoxy-5-(trifluoromethyl)-3-pyridyl]acetamide]
0.0001 to 10 µM: all assays above

O=C(Cc1ccc(-c2cnc(Nc3cnn4ccccc34)nc2)cc1F)Nc1ccnc(C(F)(F)F)c1 [Compound P-0033, 2-[2-fluoro-4-[2-(pyrazolo[1,5-a]pyridin-3-ylamino)pyrimidin-5-yl]phenyl]-N-[2-(trifluoromethyl)-4-pyridyl]acetamide]
0.0001 to 10 µM: all assays above

O=C(Cc1ccc(-c2cnc(Nc3cnn(C(F)F)c3)nc2)c(F)c1)Nc1cc(C(F)(F)F)ccn1 [Compound P-0024, 2-[4-[2-[[1-(difluoromethyl)pyrazol-4-yl]amino]pyrimidin-5-yl]-3-fluoro-phenyl]-N-[4-(trifluoromethyl)-2-pyridyl]acetamide]
0.0001 to 10 µM: all assays above

COc1ncc(NC(=O)Cc2ccc(-c3cnc4[nH]cc(C(C)=O)c4c3)cc2F)cc1C(F)(F)F [Compound P-0035, 2-[4-(3-acetyl-1H-pyrrolo[2,3-b]pyridin-5-yl)-2-fluoro-phenyl]-N-[6-methoxy-5-(trifluoromethyl)-3-pyridyl]acetamide]
0.0001 to 10 µM: all assays above

CC(=O)c1c[nH]c2ncc(-c3ccc(CC(=O)Nc4cnc(C)c(C(F)(F)F)c4)c(F)c3)cc12 [Compound P-0063, 2-[4-(3-acetyl-1H-pyrrolo[2,3-b]pyridin-5-yl)-2-fluoro-phenyl]-N-[6-methyl-5-(trifluoromethyl)-3-pyridyl]acetamide]
0.0001 to 10 µM: all assays above
